In the supplement of paper PMC4862054:

What was measured:
Conditions in all cases: incubation time: 72 h
CAL-85-1 [1] = test: normalised response (% of control), CellTiter-Glo; higher = more viable cells (100 = DMSO, 0 = benzethonium chloride kill control)
Method in brief: (§1)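 Breast cancer cell lines, seeded at 20 µl suspension per well, were incubated for 72 h in 384-well plates containing compound at 5 concentrations. These concentrations rose in 10-fold steps over a 10,000-fold range set for each compound. CellTox Green fluorescence (485/520 nm) was read, then CellTiter-Glo luminescence after 10 min at room temperature, and each plate was normalised to 0.1 % DMSO (100) and a positive kill control (0). Values are normalised signals, each at one concentration.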

HCC1937 [2] = test: as above
Method in brief: as §1

DU-4475 [3] = test: as above
Method in brief: as §1

CAL-51 [4] = test: as above
Method in brief: as §1

MFM-223 [5] = test: as above
Method in brief: as §1

HCC1143 [6] = test: as above
Method in brief: as §1

CAL-120 [7] = test: as above
Method in brief: as §1

MDA-MB-436 [8] = test: as above
Method in brief: as §1

HCC1599 [9] = test: as above
Method in brief: as §1

MDA-MB-231 [10] = test: as above
Method in brief: as §1

MDA-MB-453 [11] = test: as above
Method in brief: as §1

Hs578T [12] = test: as above
Method in brief: as §1

CAL-148 [13] = test: as above
Method in brief: as §1

HDQ-P1 [14] = test: as above
Method in brief: as §1

BT-474 [15] = test: as above
Method in brief: as §1

SK-BR-3 [16] = test: as above
Method in brief: as §1

MCF-10A = test: as above
Method in brief: as §1

MDA-MB-468 [17] = test: as above
Method in brief: as §1

BT-549 [18] = test: as above
Method in brief: as §1

CAL-85-1 [19] = test: normalised viability (% of control), CellTiter-Blue; higher = more viable cells (100 = DMSO, 0 = benzethonium chloride kill control)
Description: (§2)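 DSRT, CellTiter-Blue viability, 72 h incubation. Signal is normalised to DMSO and benzethonium chloride controls. Value is the normalised response at dose 1.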

HCC1937 [20] = test: as above
Description: as §2

DU-4475 [21] = test: as above
Description: as §2

CAL-51 [22] = test: as above
Description: as §2

MFM-223 [23] = test: as above
Description: as §2

HCC1143 [24] = test: as above
Description: as §2

CAL-120 [25] = test: as above
Description: as §2

MDA-MB-436 [26] = test: as above
Description: as §2

HCC1599 [27] = test: as above
Description: as §2

MDA-MB-231 [28] = test: as above
Description: as §2

MDA-MB-453 [29] = test: as above
Description: as §2

Hs578T [30] = test: as above
Description: as §2

CAL-148 [31] = test: as above
Description: as §2

HDQ-P1 [32] = test: as above
Description: as §2

BT-474 [33] = test: as above
Description: as §2

SK-BR-3 [34] = test: as above
Description: as §2

MDA-MB-468 [35] = test: as above
Description: as §2

BT-549 [36] = test: as above
Description: as §2

SMILES | normalised response (CAL-85-1 [1]) | normalised response (HCC1937 [2]) | normalised response (DU-4475 [3]) | normalised response (CAL-51 [4]) | normalised response (MFM-223 [5]) | normalised response (HCC1143 [6]) | normalised response (CAL-120 [7]) | normalised response (MDA-MB-436 [8]) | normalised response (HCC1599 [9]) | normalised response (MDA-MB-231 [10]) | normalised response (MDA-MB-453 [11]) | normalised response (Hs578T [12]) | normalised response (CAL-148 [13]) | normalised response (HDQ-P1 [14]) | normalised response (BT-474 [15]) | normalised response (SK-BR-3 [16]) | normalised response (MCF-10A) | normalised response (MDA-MB-468 [17]) | normalised response (BT-549 [18]) | normalised viability (CAL-85-1 [19]) | normalised viability (HCC1937 [20]) | normalised viability (DU-4475 [21]) | normalised viability (CAL-51 [22]) | normalised viability (MFM-223 [23]) | normalised viability (HCC1143 [24]) | normalised viability (CAL-120 [25]) | normalised viability (MDA-MB-436 [26]) | normalised viability (HCC1599 [27]) | normalised viability (MDA-MB-231 [28]) | normalised viability (MDA-MB-453 [29]) | normalised viability (Hs578T [30]) | normalised viability (CAL-148 [31]) | normalised viability (HDQ-P1 [32]) | normalised viability (BT-474 [33]) | normalised viability (SK-BR-3 [34]) | normalised viability (MDA-MB-468 [35]) | normalised viability (BT-549 [36])
CN1CCC(COc2cnc(-c3cccc(Cn4nc(-c5cccc(C#N)c5)ccc4=O)c3)nc2)CC1 (1 nM) | 90.4% | 103% | 100% | 127% | 93.6% | 102% | 99.1% | 91.4% | 112% | 95.1% | 91.3% | 96.7% | 97.8% | 95.3% | 101% | 71% | 93.9% | 92.3% | 93.5% | 99.6% | 86.7% | 100% | 90.5% | 101% | 110% | 102% | 98.7% | 110% | 77.3% | 104% | 98.4% | 89.6% | 77.4% | 83.7% | 96.4% | 92.5% | 93.2%
CN(C)C/C=C/C(=O)Nc1cc2c(Nc3ccc(F)c(Cl)c3)ncnc2cc1O[C@H]1CCOC1 [Afatinib] (1 nM) | 108% | 97.2% | 109% | 116% | 97.8% | 106% | 94.4% | 105% | 104% | 97.7% | 112% | 96.5% | 90.3% | 98.4% | 97.5% | 98.9% | 92.7% | 109% | 96.9% | 82% | 85.4% | 96.4% | 109% | 93.2% | 83.8% | 69.7% | 88.4% | 84.5% | 92.4% | 101% | 102% | 106% | 74.3% | 85.9% | 89.2% | 107% | 111%
CN1CC[C@H](c2c(O)cc(O)c3c(=O)cc(-c4ccccc4Cl)oc23)[C@H](O)C1 [Alvocidib] (1 nM) | 110% | 103% | 104% | 80.2% | 98.2% | 96.5% | 102% | 97.9% | 94.2% | 103% | 115% | 98.1% | 104% | 94.9% | 92.2% | 112% | 95.2% | 106% | 106% | 83.5% | 96.4% | 101% | 102% | 88.3% | 78.5% | 75% | 94.3% | 99.6% | 98.1% | 95.8% | 73.7% | 104% | 79.7% | 92.3% | 97.4% | 113% | 104%
Nc1nc(Cl)nc2c1ncn2[C@H]1C[C@H](O)[C@@H](CO)O1 [Cladribine] (0.1 nM) | 99.8% | 101% | 105% | 114% | 106% | 105% | 94.3% | 148% | 91.3% | 102% | 105% | 105% | 97.7% | 96.3% | 99.6% | 100% | 106% | 101% | 109% | 85.4% | 86.8% | 99.2% | 112% | 89.3% | 91.8% | 98.3% | 107% | 88.7% | 74.9% | 112% | 108% | 117% | 109% | 75.1% | 95.5% | 98.4% | 85.4%
Nc1ccn([C@@H]2O[C@H](CO)[C@@H](O)[C@@H]2O)c(=O)n1 [Cytarabine] (1 nM) | 98.8% | 99.3% | 100% | 75.7% | 103% | 97.6% | 98.7% | 102% | 108% | 93.3% | 99.8% | 102% | 99.7% | 96.6% | 103% | 101% | 112% | 97.8% | 93.5% | 101% | 95.3% | 111% | 89.8% | 102% | 108% | 96.1% | 101% | 111% | 92.2% | 96.3% | 93.9% | 106% | 96.5% | 75.4% | 101% | 98.1% | 86.8%
Cc1c2oc3c(C)ccc(C(=O)N[C@@H]4C(=O)N[C@H](C(C)C)C(=O)N5CCC[C@H]5C(=O)N(C)CC(=O)N(C)[C@@H](C(C)C)C(=O)O[C@@H]4C)c3nc-2c(C(=O)N[C@@H]2C(=O)N[C@H](C(C)C)C(=O)N3CCC[C@H]3C(=O)N(C)CC(=O)N(C)[C@@H](C(C)C)C(=O)O[C@@H]2C)c(N)c1=O [Dactinomycin] (0.1 nM) | 107% | 95.9% | 103% | 101% | 104% | 106% | 94.2% | 123% | 90.6% | 102% | 102% | 110% | 97.4% | 93.1% | 96% | 99% | 104% | 92.2% | 99.8% | 97.2% | 78.5% | 90.5% | 94% | 104% | 93.7% | 95.6% | 94.9% | 79.1% | 91.6% | 94.6% | 125% | 90.5% | 108% | 95.7% | 96% | 92.2% | 91.3%
CO[C@H]1C[C@@H]2CC[C@@H](C)[C@@](O)(O2)C(=O)C(=O)N2CCCC[C@H]2C(=O)O[C@H]([C@H](C)C[C@@H]2CC[C@@H](OC(=O)C(C)(CO)CO)[C@H](OC)C2)CC(=O)[C@H](C)/C=C(\C)[C@@H](O)[C@@H](OC)C(=O)[C@H](C)C[C@H](C)/C=C/C=C/C=C/1C [Temsirolimus] (0.1 nM) | 100% | 91.1% | 104% | 106% | 103% | 102% | 97.5% | 103% | 89.3% | 101% | 104% | 88.2% | 99.7% | 101% | 104% |  | 104% | 88.6% | 86.6% | 79.7% | 55.3% | 99.3% | 98.3% | 77.8% | 94.1% | 86.7% | 92.4% | 99.8% | 83.6% | 88.1% | 86.6% | 96.1% | 105% | 95% | 92.6% | 93.5% | 92.8%
